Data as given in publication PMC6271277, “^68Ga-Labeled Cyclic NGR Peptide for MicroPET Imaging of CD13 Receptor Expression” (Molecules, 2014).

Columns and labels:
CD13 receptor = biological target: T1, CD13 receptor (Homo sapiens, UniProt P15144); assay: Cell-based competitive binding assay against ^125I-NGR; settings: HT-1080 cells, competitor 10^-12 to 10^-5 M, gamma counter, n = 3; read-out: IC50, inhibition of ^125I-NGR binding to CD13 receptor
T1 construct: endogenous in cells; host or cells: HT-1080 human fibrosarcoma cells
Experimental: In vitro CD13 binding affinity and specificity of NOTA-G3-NGR were tested by a cell-based competitive assay. The binding of ^125I-NGR to CD13 receptors in HT-1080 cells can be inhibited by NOTA-G3-NGR in a dose-dependent manner (Figure 1b).
In vitro CD13 receptor binding affinity and specificity of NOTA-G3-NGR in HT-1080 cells were assessed using a cell-based competitive assay. ^125I-labeled linear NGR peptide (sequence H-Tyr-Gly-Gly-Cys-Asn-Gly-Arg-Cys-OH) was prepared using the Iodogen method and used as the radioligand for CD13. The non-radiolabeled NOTA-G3-NGR peptide (concentrations at a range from 10^−12 to 10^−5 M) was co-incubated with ^125I-NGR in HT-1080 cells. After washing with ice-cold binding buffer three times, the HT-1080 cells were lysed in 200 µL of lysis buffer. The cell-associated radioactivity was then measured using a gamma counter (Beijing PET CO., Ltd., Beijing, China). The IC50 (50% inhibitory concentration) value was obtained by fitting the data using nonlinear regression with GraphPad Prism (GraphPad Software, San Diego, CA, USA). Experiments were performed in triplicate.

physchem = assay type: physicochemical; settings: pH 7.4
Experimental: The octanol–water partition coefficient value was determined by measuring the distribution (logD) of radioactivity in octanol and PBS. Approximately 5 KBq of ^68Ga- NOTA-G3-NGR (2 μL) was added to a vial containing 0.5 mL of octanol and 0.5 mL of PBS (pH = 7.4). The mixture was then vortexed vigorously for 15 min. Subsequently, the mixture was centrifuged at 12,500 rpm for 5 min to ensure the complete separation of layers. Aliquots of the aqueous and octanol layers were collected, measured in a gamma counter (Beijing PET CO., Ltd., Beijing, China). The octanol–water partition coefficient value was then calculated (n = 5).

T1 sequence (P15144 whole entry): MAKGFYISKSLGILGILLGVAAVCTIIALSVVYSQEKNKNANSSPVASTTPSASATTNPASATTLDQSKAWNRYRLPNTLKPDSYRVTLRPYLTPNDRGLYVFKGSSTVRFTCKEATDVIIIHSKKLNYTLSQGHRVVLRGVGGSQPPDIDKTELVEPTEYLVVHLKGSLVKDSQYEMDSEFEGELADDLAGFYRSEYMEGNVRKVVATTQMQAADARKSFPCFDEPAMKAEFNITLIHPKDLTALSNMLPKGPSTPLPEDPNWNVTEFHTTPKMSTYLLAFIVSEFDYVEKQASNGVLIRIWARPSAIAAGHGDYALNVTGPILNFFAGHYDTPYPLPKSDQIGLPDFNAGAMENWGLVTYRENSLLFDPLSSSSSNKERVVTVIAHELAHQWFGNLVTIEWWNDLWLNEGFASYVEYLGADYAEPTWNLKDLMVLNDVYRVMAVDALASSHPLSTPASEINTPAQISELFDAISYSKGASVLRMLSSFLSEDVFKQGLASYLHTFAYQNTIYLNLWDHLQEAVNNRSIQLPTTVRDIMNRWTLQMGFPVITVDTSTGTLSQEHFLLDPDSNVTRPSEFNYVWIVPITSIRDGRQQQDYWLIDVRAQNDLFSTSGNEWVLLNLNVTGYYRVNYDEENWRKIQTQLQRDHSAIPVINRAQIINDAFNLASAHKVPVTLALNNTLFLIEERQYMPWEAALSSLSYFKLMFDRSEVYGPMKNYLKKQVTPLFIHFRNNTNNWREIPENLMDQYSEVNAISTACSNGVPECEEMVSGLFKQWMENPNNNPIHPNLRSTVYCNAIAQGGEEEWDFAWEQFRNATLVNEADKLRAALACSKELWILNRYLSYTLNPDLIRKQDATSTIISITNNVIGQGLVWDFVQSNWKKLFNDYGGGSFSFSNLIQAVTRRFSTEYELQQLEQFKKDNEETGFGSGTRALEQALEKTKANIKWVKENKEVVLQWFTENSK

IC50 (CD13 receptor) | Structure (SMILES) | logD (physchem)
0.0747 ± 0.00391 µM | N=C(N)NCCC[C@@H]1NC(=O)CNC(=O)[C@H](CC(N)=O)NC(=O)[C@@H](NC(=O)CNC(=O)CNC(=O)CNC(=S)Nc2ccc(CC3CN(CC(=O)O)CCN(CC(=O)O)CCN3CC(=O)O)cc2)CSSC[C@@H](C(=O)O)NC1=O (some centres unmarked) [NOTA-G3-NGR] | –
– | N=C(N)NCCC[C@@H]1NC(=O)CNC(=O)[C@H](CC(N)=O)NC(=O)[C@@H](NC(=O)CNC(=O)CNC(=O)CNC(=S)Nc2ccc(CC3CN(CC(=O)O)CCN(CC(=O)O)CCN3CC(=O)O)cc2)CSSC[C@@H](C(=O)O)NC1=O (some centres unmarked) [^68Ga-NOTA-G3-NGR, metal not drawn] | -2.25 ± 0.17
